Laboratory results from EP0973746B1, “SUBSTITUTED 3-CYANO QUINOLINES” (Wyeth Holdings Corporation, priority 1997, dated 1998).
Converted amounts (≈) assume the structure as drawn.

Tests used:
[1] = biological target: Epithelial Cell Kinase (ECK) (Homo sapiens, UniProt P29317); assay: biochemical
Experimental: In this standard pharmacological test procedure, a biotinylated peptide substrate is first immobilized on neutravidin-coated microtiter plates. The test drug, the Epithelial Cell Kinase (ECK), Mg^++, sodium vanadate (a protein tyrosine phosphatase inhibitor), and an appropriate buffer to maintain pH (7.2) are then added to the immobilized substrate-containing microtiter wells. ATP is then added to initiate phosphorylation. After incubation, the assay plates are washed with a suitable buffer leaving behind phosphorylated peptide which is exposed to horse radish peroxidase (HRP)-conjugated anti-phosphotyrosine monoclonal antibody. The antibody-treated plates are washed again and the HRP activity in individual wells is quantified as a reflection of degree of substrate phosphorylation.

[2] = biological target: T1, Kinase insert Domain containing Receptor (KDR: the catalytic domain of the VEGF receptor) (Homo sapiens, UniProt P35968); assay: Inhibition of Kinase insert Domain containing Receptor (KDR); format: biochemical; conditions: pH 7.2; radioactive format; read-out: KDR IC50 (converted);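 note: KDR phosphorylating a Glu:Tyr 4:1 copolymer with P32- or P33-labelled ATP, Mg++ and vanadate, read as acid-insoluble radiolabel, compared with compound-free reaction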
T1 construct: KDR: the catalytic domain of the VEGF receptor
Experimental: In this standard pharmacological test procedure, KDR protein is mixed, in the presence or absence of a inhibitor compound, with a substrate peptide to be phosphorylated (a copolymer of glutamic acid and tyrosine, E:Y :: 4:1) and other cofactors such as Mg^++ and sodium vanadate (a protein tyrosine phosphatase inhibitor) in an appropriate buffer to maintain pH (7.2). ATP and a radioactive tracer (either P^32-or P^33- labeled ATP) is then add to initiate phosphorylation. After incubation, the radioactive phosphate associated with the acid-insoluble fraction of the assay mixture is then quantified as reflection of substrate phosphorylation.

[3] = biological target: recombinant human MEK 1 (MAPKK) and recombinant human ERK2 (MAPK); assay: Mitogen Activated Protein Kinase (MAPK) assay, two component coupled MEK 1 / ERK2; format: biochemical; conditions: separate entries for the same compound = evaluated more than one time;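 note: MEK 1-activated ERK2 phosphorylates MBP or Myc peptide with 33P-ATP, filter capture and scintillation counting, inhibitor preincubated with ERK2 30 min at 0 °C, inhibition relative to uninhibited control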
[4] = biological target: epidermal growth factor receptor kinase (Homo sapiens, UniProt P00533); assay: biochemical
SW620 = assay: Inhibition of cancer cell growth as measured by cell number, SW620; format: cell-based, human; conditions: Homo sapiens, SW-620, 48 h, read-out: IC50 SW620, cell number, Sulforhodamine B, 48 hours exposure; Table 4;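 note: SW620 was included as a cell line with little or no EGFR or HER2/neu expression, in contrast to receptor-overexpressing lines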
Text: (§1) The cell lines were chosen since they overexpressed epidermal growth factor receptor (EGFR) (i.e. A431) or HER2/neu (SKBR3), or had little to no expression of the these receptors (SW620, LOX, MCF7).

LS174T = assay: Inhibition of cancer cell growth as measured by cell number, LS174T; format: cell-based; conditions: Homo sapiens, 48 h, read-out: IC50 LS174T
MCF7 = assay: Inhibition of cancer cell growth as measured by cell number, MCF7; format: cell-based, human; conditions: Homo sapiens, MCF7, 48 h, read-out: IC50 MCF7, cell number, Sulforhodamine B, 48 hours exposure; Table 5;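 note: MCF7 was included as a line with little or no EGFR or HER2/neu expression, in contrast to the receptor-overexpressing lines of the panel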
Text: as §1

B7474 = assay: Inhibition of cancer cell growth as measured by cell number, B7474; format: cell-based; conditions: Homo sapiens, 48 h, read-out: IC50 B7474
T47D = assay: Inhibition of cancer cell growth as measured by cell number, T47D; format: cell-based; conditions: Homo sapiens, 48 h, read-out: IC50 T47D
NEC = assay: Inhibition of cancer cell growth as measured by cell number, NEC; format: cell-based; conditions: Homo sapiens, 48 h, read-out: IC50 NEC
CCRF-CFM = assay: Inhibition of cancer cell growth as measured by cell number, CCRF-CFM; format: cell-based; conditions: Homo sapiens, 48 h, read-out: IC50 CCRF-CFM
SKBR3 = assay: Inhibition of cancer cell growth as measured by cell number, SKBR3; format: cell-based, human; conditions: Homo sapiens, SK-BR-3, 48 h, read-out: IC50 SKBR3, cell number, Sulforhodamine B, 48 hours exposure; Table 7;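 note: SK-BR-3 cells were selected as a line overexpressing HER2/neu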
Text: as §1

Epithelial Cell Kinase (ECK), sequence (P29317 24-976, species assumed): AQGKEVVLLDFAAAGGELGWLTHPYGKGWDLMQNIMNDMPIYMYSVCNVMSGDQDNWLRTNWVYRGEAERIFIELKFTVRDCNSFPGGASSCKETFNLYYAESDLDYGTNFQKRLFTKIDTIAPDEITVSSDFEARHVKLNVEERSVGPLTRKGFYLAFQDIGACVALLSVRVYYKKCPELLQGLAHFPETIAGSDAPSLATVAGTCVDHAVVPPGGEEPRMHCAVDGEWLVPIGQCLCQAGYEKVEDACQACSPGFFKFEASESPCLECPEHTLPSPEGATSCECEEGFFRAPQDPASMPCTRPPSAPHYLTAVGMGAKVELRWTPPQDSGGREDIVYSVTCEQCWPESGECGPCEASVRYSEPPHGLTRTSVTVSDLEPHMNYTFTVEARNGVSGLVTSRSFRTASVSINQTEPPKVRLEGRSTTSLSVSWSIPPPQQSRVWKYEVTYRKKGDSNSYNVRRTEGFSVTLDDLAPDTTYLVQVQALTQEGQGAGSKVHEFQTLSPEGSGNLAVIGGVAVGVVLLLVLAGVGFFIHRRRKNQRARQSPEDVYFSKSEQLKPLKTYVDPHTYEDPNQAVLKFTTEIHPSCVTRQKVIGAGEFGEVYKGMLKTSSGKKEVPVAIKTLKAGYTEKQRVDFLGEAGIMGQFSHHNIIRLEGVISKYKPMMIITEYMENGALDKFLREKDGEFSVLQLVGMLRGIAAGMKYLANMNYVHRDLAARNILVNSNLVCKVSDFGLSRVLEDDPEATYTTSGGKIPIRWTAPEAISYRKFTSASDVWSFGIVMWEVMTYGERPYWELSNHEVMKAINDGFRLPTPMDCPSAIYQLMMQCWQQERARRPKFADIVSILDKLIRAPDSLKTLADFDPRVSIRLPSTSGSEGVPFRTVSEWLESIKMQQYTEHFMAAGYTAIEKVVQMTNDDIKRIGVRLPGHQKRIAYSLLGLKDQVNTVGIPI
T1 sequence (P35968 834-1162 limits assumed): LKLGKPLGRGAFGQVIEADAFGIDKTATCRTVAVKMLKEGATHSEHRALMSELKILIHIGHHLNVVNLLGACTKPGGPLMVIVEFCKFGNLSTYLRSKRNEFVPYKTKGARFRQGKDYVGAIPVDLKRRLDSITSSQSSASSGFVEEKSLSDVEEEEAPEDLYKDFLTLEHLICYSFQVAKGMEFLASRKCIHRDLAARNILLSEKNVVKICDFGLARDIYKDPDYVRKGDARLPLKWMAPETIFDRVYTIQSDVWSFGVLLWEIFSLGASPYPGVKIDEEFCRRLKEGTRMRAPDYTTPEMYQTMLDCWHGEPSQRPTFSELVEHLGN
epidermal growth factor receptor kinase, sequence (P00533 25-1210): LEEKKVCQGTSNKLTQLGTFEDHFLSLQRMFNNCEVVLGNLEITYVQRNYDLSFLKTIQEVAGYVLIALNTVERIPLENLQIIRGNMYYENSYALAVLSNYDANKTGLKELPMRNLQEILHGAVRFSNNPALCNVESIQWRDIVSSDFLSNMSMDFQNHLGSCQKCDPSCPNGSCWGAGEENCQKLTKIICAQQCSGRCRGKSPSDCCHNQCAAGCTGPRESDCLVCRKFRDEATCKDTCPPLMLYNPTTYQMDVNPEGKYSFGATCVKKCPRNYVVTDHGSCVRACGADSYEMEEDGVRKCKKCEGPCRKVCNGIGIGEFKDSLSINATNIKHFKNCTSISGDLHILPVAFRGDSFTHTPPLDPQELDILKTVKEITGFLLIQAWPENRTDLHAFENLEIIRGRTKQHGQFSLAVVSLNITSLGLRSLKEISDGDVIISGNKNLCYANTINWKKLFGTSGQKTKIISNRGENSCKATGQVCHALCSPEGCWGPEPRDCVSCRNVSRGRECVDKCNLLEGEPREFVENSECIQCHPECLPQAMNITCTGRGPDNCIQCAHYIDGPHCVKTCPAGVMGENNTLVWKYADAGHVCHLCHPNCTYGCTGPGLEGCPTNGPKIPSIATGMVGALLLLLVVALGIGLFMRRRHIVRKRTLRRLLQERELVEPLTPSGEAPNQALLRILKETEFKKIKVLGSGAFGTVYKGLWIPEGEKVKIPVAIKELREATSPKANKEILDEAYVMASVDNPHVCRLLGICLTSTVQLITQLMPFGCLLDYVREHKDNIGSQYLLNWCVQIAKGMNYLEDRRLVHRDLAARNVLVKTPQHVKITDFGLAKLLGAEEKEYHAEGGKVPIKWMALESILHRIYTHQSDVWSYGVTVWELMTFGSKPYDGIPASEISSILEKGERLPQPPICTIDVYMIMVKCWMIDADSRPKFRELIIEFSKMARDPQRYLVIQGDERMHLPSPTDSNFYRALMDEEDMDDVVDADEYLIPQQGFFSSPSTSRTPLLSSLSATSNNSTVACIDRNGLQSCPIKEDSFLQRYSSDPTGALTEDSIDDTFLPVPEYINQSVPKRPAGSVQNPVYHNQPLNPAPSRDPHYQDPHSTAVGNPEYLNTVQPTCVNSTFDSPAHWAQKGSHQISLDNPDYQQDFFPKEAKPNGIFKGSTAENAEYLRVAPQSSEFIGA

SMILES	IC50 [1] [µM]	IC50 [2] [µM]	IC50 [3] [µM]	IC50 [4] [µM]	further results
COc1ccc2c(Nc3cc(O)c(Cl)cc3F)c(C#N)cnc2c1 [Example 282, 4-(4-Chloro-2-fluoro-5-hydroxy-phenylamino)-7-methoxy-quinoline-3-carbonitrile]	0.0029	5.82	> 100	–	–
N#Cc1cnc2ccc(NC(=O)C#CCO)cc2c1Nc1cccc(Br)c1 [Example 57, N-[4-[(3-Bromophenyl)amino]-3-cyano-6-quinolinyl]-4-hydroxy-2-butynamide]	–	–	–	0.008	–
CCOc1cc2ncc(C#N)c(Nc3ccc(C)c(O)c3)c2cc1OC [Example 177, 7-Ethoxy-4-[(3-hydroxy-4-methylphenyl)amino]-6-methoxy-3-quinolinecarbonitrile]	0.0057	0.143	40	–	–
COc1ccc2c(Nc3ccc(C)c(O)c3)c(C#N)cnc2c1 [Example 281, 4-(3-hydroxy-4-methyl-phenylamino)-7-methoxy-quinoline-3-carbonitrile]	0.0033	9.83	2.5	–	–
COc1cc2ncc(C#N)c(Nc3cccc(C(F)(F)F)c3)c2cc1OC [Example 42, 4-[(3-Trifluoromethylphenyl)amino]-6,7-dimethoxy-3-quinolinecarbonitrile]	–	–	–	–	IC50 (SW620): 31.2 µg/mL (≈ 83.5 µM); IC50 (LS174T): 5.97 µg/mL (≈ 16 µM); IC50 (MCF7): 6.14 µg/mL (≈ 16.5 µM); IC50 (B7474): 6.78 µg/mL (≈ 18.2 µM); IC50 (T47D): 6.78 µg/mL (≈ 18.2 µM); IC50 (NEC): 6.47 µg/mL (≈ 17.3 µM); IC50 (CCRF-CFM): 5.23 µg/mL (≈ 14 µM); IC50 (SKBR3): 12.5 µg/mL (≈ 33.6 µM)
N#Cc1cnc2ccc(NC(=O)/C=C\Cl)cc2c1Nc1cccc(Br)c1 [Example 52, N-[4-[(3-Bromophenyl)amino]-3-cyano-6-quinolinyl]-3(Z)-chloro-2-propenamide]	–	–	–	0.01	–
COc1cc2c(Nc3cc(O)c(Cl)cc3F)c(C#N)cnc2cc1OCCCN(C)C [Example 84, 4-(4-Chloro-2-fluoro-5-hydroxy-phenylamino)-7-(3-dimethylaminopropoxy)-6-methoxy-quinoline-3-carbonitrile]	0.449	0.674	< 1	–	–
COc1cc2ncc(C#N)c(Nc3ccc(O)cc3C)c2cc1OC [Example 292, 4-(4-Hydroxy-2-methyl-phenylamino)-6,7-dimethoxy-quinoline-3-carbonitrile]	0.0018	29.8	> 100	–	–
CN(C)CC#CC(=O)Nc1ccc2ncc(C#N)c(Nc3cccc(Br)c3)c2c1 [Example 59, N-[4-[(3-Bromophenyl)amino]-3-cyano-6-quinolinyl]-4-dimethylamino-2-butynamide]	–	–	–	0.0001	–
N#Cc1cnc2ccc(NC(=O)C#CCN3CCOCC3)cc2c1Nc1cccc(Br)c1 [Example 58, N-[4-[(3-Bromophenyl)amino]-3-cyano-6-quinoliny]-4-morpholino-2-butynamide]	–	–	–	0.002	–
